From ChEMBL document CHEMBL5096234, “Discovery, Optimization, and Evaluation of Selective CDK4/6 Inhibitors for the Treatment of Breast Cancer” (J Med Chem, 2022)
pIC50: −log10 of the molar value. Calls of active or inactive are those of the source. The rule behind the calls is not given here.

Tests used:
[1] = molecular target: CDK4/Cyclin D3 (Homo sapiens, UniProt P11802); assay: Inhibition of CDK4/cyclin-D3 (unknown origin) in presence of ATP by time resolved-FRET assay; assay type: protein-complex assay
[2] = test system: MCF7; assay: Induction of cell cycle arrest in human MCF7 cells assessed as accumulation of cells at G2 phase at 1.5 uM incubated for 24 hrs by propidium iodide staining based flow cytometry analysis (reference value: 29.66%); assay type: functional
[3] = […] stability in human liver microsomes assessed as intrinsic clearance preincubated for 10 mins followed by NADPH addition by LC-MS/MS analysis; assay type: ADME, Microsome; details: read-out: CLH
[4] = test system: MCF7; assay: Antiproliferative activity against human MCF7 cells assessed as inhibition of cell growth at 1.5 to 6 uM incubated for 5 days by CCK-8 assay; assay type: functional, cell-based; details: dose 1.5-6 µM, time 5.0 day
[5] = AUC (0 to infinity) in Sprague-Dawley rat 1 mg/kg, iv by LC/MS/MS analysis; assay type: ADME, organism-based; set-up: time infinity, dose 1 mg/kg, route iv; details: in vivo
[6] = Acute toxicity in ICR mouse assessed as liver lesions at 5000 mg/kg, po administered as single dose and measured every 2 days for 14 days by H and E staining based analysis; assay type: organism-based; details: in vivo, 336 h, time 14 day
[7] = test system: MCF7; assay: Downregulation c-MYC level in human MCF7 cells incubated for 24 hrs by Western blot analysis; assay type: functional, cell-based; details: dose 1.5-5 µM, DDE = dose-dependent effect
[8] = test system: T47D; assay: Induction of cell cycle arrest in human T47D cells assessed as accumulation of cells at G2 phase at 2 uM incubated for 24 hrs by propidium iodide staining based flow cytometry analysis (reference value: 16.57%); assay type: functional
[9] = Toxicity in BALB/c mouse xenografted with human MCF7 cells assessed as increase in body weight at 100 to 150 mg/kg, po administered once daily and measured every 2 days for 23 days; assay type: organism-based; details: in vivo, 552 h, dose 100-150 mg/kg, time 23 day
[10] = test system: ZR-75-1; assay: Antiproliferative activity against human ZR-75-1 cells assessed as cell growth inhibition incubated for 72 hrs by CCK-8 assay; assay type: functional
[11] = test system: T47D; assay: Induction of cell cycle arrest in human T47D cells assessed as accumulation of cells at G1 phase at 1 uM incubated for 24 hrs by propidium iodide staining based flow cytometry analysis (reference value: 69.55 %); assay type: functional
[12] = test system: MCF7; assay: Inhibition of clone formation in human MCF7 cells at 0.75 to 6 uM by crystal voilet staining based analysis; assay type: functional, cell-based; details: dose 0.75-6 µM, time 2.0 weeks
[13] = test system: T47D; assay: Induction of cell cycle arrest in human T47D cells assessed as accumulation of cells at G1 phase at 2 uM incubated for 24 hrs by propidium iodide staining based flow cytometry analysis (reference value: 69.55 %); assay type: functional
[14] = molecular target: CDK9/cyclin T1 (Homo sapiens, UniProt P50750); assay: Inhibition of CDK9/Cyclin T1 (unknown origin) in presence of ATP by time resolved-FRET assay; assay type: protein-complex assay
[15] = test system: T47D; assay: Downregulation cyclin D1 level in human T47D cells incubated for 24 hrs by Western blot analysis; assay type: functional, cell-based; details: dose 1-4 µM, DDE = dose-dependent effect
[16] = test system: T47D; assay: Induction of cell cycle arrest in human T47D cells assessed as accumulation of cells at G2 phase at 1 uM incubated for 24 hrs by propidium iodide staining based flow cytometry analysis (reference value: 16.57%); assay type: functional
[17] = test system: MCF7; assay: Induction of cell cycle arrest in human MCF7 cells assessed as accumulation of cells at G2 phase at 3 uM incubated for 24 hrs by propidium iodide staining based flow cytometry analysis (reference value: 29.66%); assay type: functional
[18] = Acute toxicity in ICR mouse assessed as change in heart kidney at 1000 to 5000 mg/kg, po administered as single dose and measured every 2 days for 14 days; assay type: organism-based; details: in vivo, 336 h, dose 1000-5000 mg/kg, time 14 day
[19] = molecular target: CDK2/Cyclin A2 (Homo sapiens, UniProt P24941); assay: Inhibition of CDK2/Cyclin A (unknown origin) in presence of ATP by time resolved-FRET assay; assay type: protein-complex assay
[20] = Acute toxicity in ICR mouse assessed as change in liver weight at 1000 to 5000 mg/kg, po administered as single dose and measured every 2 days for 14 days; assay type: organism-based; details: in vivo, 336 h, dose 1000-5000 mg/kg, time 14 day
[21] = test system: MCF-10A; assay: Antiproliferative activity against human MCF-10A cells assessed as cell growth inhibition incubated for 72 hrs by CCK-8 assay; assay type: functional
[22] = Inhibition of CDK1/cyclin B (unknown origin) in presence of ATP by time resolved-FRET assay; set-up: species or system Homo sapiens
[23] = test system: MCF7; assay: Induction of cell cycle arrest in human MCF7 cells assessed as accumulation of cells at G2 phase at 6 uM incubated for 24 hrs by propidium iodide staining based flow cytometry analysis (reference value: 29.66%); assay type: functional
[24] = test system: MCF7; assay: Antitumor activity against human MCF7 cells xenografted in BALB/c mouse assessed as inhibition of tumor growth at 150 mg/kg, po administered once daily and measured every 2 days for 23 days; assay type: functional, organism-based; details: time 23.0 day
[25] = molecular target: T1, Retinoblastoma-associated protein (Homo sapiens) (UniProt P06400); assay: Inhibition of RB phosphorylation in human T47D cells at 1 to 4 uM incubated for 24 hrs by Western blot analysis; assay type: cell-based; details: dose 1-4 µM
T1 sequence (whole entry): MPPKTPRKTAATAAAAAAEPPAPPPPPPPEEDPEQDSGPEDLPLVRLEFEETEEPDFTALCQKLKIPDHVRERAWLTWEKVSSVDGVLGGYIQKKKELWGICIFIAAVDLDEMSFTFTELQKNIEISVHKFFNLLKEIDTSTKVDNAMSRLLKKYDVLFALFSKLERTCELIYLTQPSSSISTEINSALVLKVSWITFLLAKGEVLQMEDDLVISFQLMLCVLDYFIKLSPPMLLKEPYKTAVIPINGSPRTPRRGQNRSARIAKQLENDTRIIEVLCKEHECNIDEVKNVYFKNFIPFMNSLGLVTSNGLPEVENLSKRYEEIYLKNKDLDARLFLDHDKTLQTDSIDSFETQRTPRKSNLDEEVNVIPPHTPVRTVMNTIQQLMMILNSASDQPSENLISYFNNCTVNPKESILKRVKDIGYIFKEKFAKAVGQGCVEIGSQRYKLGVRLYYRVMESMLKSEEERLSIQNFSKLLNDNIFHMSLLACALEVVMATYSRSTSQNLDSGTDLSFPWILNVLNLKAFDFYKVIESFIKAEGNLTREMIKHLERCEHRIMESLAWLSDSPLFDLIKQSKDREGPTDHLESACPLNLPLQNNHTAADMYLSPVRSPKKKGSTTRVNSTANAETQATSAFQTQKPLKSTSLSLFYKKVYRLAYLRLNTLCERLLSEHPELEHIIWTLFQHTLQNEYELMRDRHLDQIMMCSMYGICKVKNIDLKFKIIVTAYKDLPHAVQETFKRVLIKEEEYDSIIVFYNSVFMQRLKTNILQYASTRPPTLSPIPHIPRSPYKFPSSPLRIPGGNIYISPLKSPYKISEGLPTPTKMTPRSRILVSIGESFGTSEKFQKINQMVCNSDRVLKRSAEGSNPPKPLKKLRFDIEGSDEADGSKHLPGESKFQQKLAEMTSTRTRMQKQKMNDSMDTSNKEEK

Chain of CDK9/cyclin T1 (O60563 whole entry): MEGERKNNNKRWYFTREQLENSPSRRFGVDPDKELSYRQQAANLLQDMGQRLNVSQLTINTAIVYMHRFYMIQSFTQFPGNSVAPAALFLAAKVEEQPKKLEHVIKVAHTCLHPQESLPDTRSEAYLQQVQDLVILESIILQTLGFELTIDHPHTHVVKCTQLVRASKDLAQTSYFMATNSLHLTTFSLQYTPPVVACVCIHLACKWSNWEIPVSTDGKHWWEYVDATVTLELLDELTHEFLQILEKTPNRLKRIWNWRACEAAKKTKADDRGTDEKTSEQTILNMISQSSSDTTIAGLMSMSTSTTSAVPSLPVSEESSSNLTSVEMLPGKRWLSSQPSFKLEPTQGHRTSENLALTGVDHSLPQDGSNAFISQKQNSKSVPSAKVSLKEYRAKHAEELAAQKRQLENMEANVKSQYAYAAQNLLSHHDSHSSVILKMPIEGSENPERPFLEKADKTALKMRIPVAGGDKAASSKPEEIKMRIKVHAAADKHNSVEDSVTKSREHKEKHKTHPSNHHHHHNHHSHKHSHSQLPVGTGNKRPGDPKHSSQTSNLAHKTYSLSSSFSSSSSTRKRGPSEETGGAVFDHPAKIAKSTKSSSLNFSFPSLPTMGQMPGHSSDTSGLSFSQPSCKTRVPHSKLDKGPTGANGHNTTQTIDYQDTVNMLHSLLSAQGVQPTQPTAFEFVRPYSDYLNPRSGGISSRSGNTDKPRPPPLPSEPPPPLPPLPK
Chain of CDK9/cyclin T1 (P50750 whole entry): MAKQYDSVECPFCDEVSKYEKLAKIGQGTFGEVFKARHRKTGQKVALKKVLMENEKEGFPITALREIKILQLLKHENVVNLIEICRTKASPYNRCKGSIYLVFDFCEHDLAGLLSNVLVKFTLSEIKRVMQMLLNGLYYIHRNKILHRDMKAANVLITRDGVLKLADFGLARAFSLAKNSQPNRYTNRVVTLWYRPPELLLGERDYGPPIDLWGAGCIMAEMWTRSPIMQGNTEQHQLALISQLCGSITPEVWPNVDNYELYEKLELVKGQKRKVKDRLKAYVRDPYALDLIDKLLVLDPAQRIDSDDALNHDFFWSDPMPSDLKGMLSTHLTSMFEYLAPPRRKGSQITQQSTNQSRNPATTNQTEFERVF
Chain of CDK4/Cyclin D3 (P11802 whole entry): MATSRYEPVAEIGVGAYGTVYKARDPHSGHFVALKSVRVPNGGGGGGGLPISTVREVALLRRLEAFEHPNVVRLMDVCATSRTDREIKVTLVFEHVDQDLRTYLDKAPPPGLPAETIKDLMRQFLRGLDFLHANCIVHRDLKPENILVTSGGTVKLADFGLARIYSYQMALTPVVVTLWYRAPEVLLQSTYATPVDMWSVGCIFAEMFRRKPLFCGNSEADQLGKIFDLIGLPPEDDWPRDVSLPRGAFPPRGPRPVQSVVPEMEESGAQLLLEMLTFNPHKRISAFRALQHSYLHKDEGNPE
Chain of CDK4/Cyclin D3 (P30281 whole entry, further chain): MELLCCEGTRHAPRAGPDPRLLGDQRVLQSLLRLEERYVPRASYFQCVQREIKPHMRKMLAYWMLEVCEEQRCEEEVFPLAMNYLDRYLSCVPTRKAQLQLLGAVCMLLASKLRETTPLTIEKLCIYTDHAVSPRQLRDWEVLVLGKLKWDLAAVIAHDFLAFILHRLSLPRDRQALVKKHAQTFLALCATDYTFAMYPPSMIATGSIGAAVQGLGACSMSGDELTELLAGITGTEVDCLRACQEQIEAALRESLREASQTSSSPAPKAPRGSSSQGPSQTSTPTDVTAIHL

Q: What does the source list for `CCN1CCc2cc(-c3nc(Nc4ccc(N5CCNCC5)cn4)ncc3F)ccc2C1=O`?
A: pIC50 [1]: 8.00; Activity [2]: 13.57%; CLint scaled [3]: 0.69 L/h/kg; inhibition [4]: Active; AUC(0-inf) [5]: 0.373 µg·h/mL; Activity [6]: Non-Toxic; Activity [7]: Dde; Activity [8]: 6.06%; Activity [9]: Non-Toxic; GI50 [10]: 3.2 µM; Activity [11]: 83.14%; inhibition [12]: Active; Activity [13]: 85.48%; pIC50 [14]: 5.57; Activity [15]: Dde; Activity [16]: 7.59%; Activity [17]: 11.42%; Activity [18]: Non-Toxic; pIC50 [19]: 5.98; Activity [20]: Non-Toxic; GI50 [21]: 17.7 µM; pIC50 [22]: < 5.00; Activity [23]: 10.67%; inhibition [24]: Active; inhibition [25]: Active
